Laboratory results reported in patent US5801180A, “Quinazoline derivatives” (priority 1991, dated 1998).

Molecular target: T1, cGMP-PDE prepared from the swine aeorta (Sus scrofa, UniProt A0A287B475)
T1 construct: The swine aeorta was sliced; from tissue; host or cells: swine aorta, 100000×g supernatant, DEAE-Toyopearl 650S fraction
Experiment: Enzyme inhibiting action with the use of cGMP-PDE prepared from the swine aorta
Type: biochemical
Conditions: CaM-independent cGMP-PDE, 1 mM EGTA, 1 μM cGMP substrate, DMSO 4% or below
Summary of the method: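 CaM-independent cGMP-PDE isolated from pig aorta supernatant by DEAE anion-exchange chromatography. Activity measured with 1 μM cGMP substrate in presence of 1 mM EGTA, following the Thompson method. Compounds added from DMSO, final DMSO 4% or below.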

| Compound | IC50 [nM] |
| --- | --- |
| COc1ccc(CNc2cc(N3CCC(C(=O)O)CC3)nc3ccc(C#N)cc23)cc1Cl [Example 260, 2-(4-Carboxypiperidino)-4-(3-chloro-4-methoxybenzyl)amino-6-cyanoquinoline] | 0.16 |
| Clc1ccc2ncnc(NCc3ccc4nc[nH]c4c3)c2c1 [Example 60, 4-(Benzimidazol-5-ylmethyl)amino-6-chloroquinazoline] | 180 |
| COc1ccc2nc(Cl)nc(NCc3ccc4c(c3)OCO4)c2c1 [Example 98, 2-Chloro-4-(3,4-methylenedioxybenzyl)amino-6-methoxyquinazoline] | 62 |
| COCCN(Cc1ccc2c(c1)OCO2)c1ncnc2ccc(SC)cc12 [Example 53, 4-[N-(2-Methoxyethyl)-(3,4-methylenedioxybenzyl)amino]-6-methylthioquinazoline] | 120 |

Continued, values first:

| IC50 [nM] | Compound |
| --- | --- |
| 0.15 | COc1ccc(CNc2nc(N(C)CCCC(=O)O)nc3ccc(C#N)cc23)cc1Cl [Example 243, 2-[N-(3-Carboxypropyl)-N-methylamino]-4-(3-chloro-4-methoxybenzyl)amino-6-cyanoquinazoline] |
| 4 | CCCCCNc1nc(NCc2ccc3c(c2)OCO3)c2cc(Cl)ccc2n1 [Example 194, 2-Pentylamino-4-(3,4-methylenedioxybenzyl)amino-6-chloroquinazoline] |
| 650 | CCN(Cc1ccc2c(c1)OCO2)c1ncnc2c(OC)c(OC)c(OC)cc12 [Example 40] |
| 21 | O=C(O)C1CCN(c2nc(NCc3ccc4c(c3)OCO4)c3cc(Br)ccc3n2)CC1 [Example 376] |
| 5 | O=C(O)/C=C/c1nc(NCc2ccc3c(c2)OCO3)c2cc(Cl)ccc2n1 [Example 122, (E)-2-(2-Carboxyvinyl)-4-(3,4-methylenedioxybenzyl)amino-6-chloroquinazoline] |
